Drawing on ChEMBL document CHEMBL1127396, “Adenosine deaminase inhibitors. Synthesis and biological evaluation of putative metabolites of (+)-erythro-9-(2S-hydroxy-3R-nonyl)adenine” (J Med Chem, 1994), this text covers Ki for four compounds.

This assay addresses T1, Adenosine deaminase (Bos taurus, UniProt P56658).
T1 sequence (P56658 whole entry): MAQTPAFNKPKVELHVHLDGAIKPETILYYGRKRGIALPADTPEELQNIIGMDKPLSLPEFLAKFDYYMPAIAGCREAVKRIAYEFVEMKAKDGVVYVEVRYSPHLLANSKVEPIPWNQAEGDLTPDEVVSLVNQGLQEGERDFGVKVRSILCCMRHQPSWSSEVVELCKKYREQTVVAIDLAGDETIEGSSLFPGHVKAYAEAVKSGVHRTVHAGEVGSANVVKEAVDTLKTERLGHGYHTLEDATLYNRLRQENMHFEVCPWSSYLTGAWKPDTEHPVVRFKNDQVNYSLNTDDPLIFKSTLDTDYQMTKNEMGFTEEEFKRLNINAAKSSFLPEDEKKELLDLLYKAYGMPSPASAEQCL
Briefly: Tested for binding affinity against calf intestinal Adenosine Deaminase (ADA).
As usually defined, the Ki is a measure of affinity in units of concentration, obtained from inhibition or displacement. A higher Ki goes with a looser hold on the target. `CCCCCC[C@H]([C@H](C)O)n1c(O)nc2c(N)ncnc21` had a Ki of 6.4 nM. The compound `CCCCCC[C@H]([C@H](C)O)[N+]1([O-])C=Nc2c(N)ncnc21` (some centres undefined) came in with an inhibition constant (Ki) of 3.8 nM. As to `CCCCCC[C@H]([C@H](C)O)[N+]1([O-])C(=O)Nc2c(N)ncnc21` (some centres undefined), the Ki worked out at 15.8 nM.

Compound `CCCCCC[C@H]([C@H](C)O)n1cnc2c(N)ncnc21` [(+)-EHNA] had a Ki of 0.82 nM.
